Data taken from patent US5859026A, “Quinoline carboxylic acid” (priority 1995, dated 1999).
Converted amounts (≈) assume the structure as drawn.

Experiments:
S. aureusHPC292 = experiment: Antibacterial activity (MIC), clinically isolated strain; assay type: cell-based; settings: Staphylococcus aureus; clinical isolate S. aureus HPC292, Gram +, 10^6 viable cells per ml; read-out: minimum inhibitory concentration (MIC)
From the text: (§1) 1. Antibacterial spectrum against standard strains and clinically isolated strains

E. faecalis HPC984 = experiment: as above; assay type: cell-based; settings: Enterococcus faecalis; clinical isolate E. faecalis HPC984, Gram +, 10^6 viable cells per ml; read-out: minimum inhibitory concentration (MIC)
From the text: as §1

S. marcescens HNR1544 = experiment: as above; assay type: cell-based; settings: Serratia marcescens; clinical isolate S. marcescens HNR1544, Gram -, 10^6 viable cells per ml; read-out: minimum inhibitory concentration (MIC)
From the text: as §1

S. marcescens HNR1792 = experiment: as above; assay type: cell-based; settings: Serratia marcescens; clinical isolate S. marcescens HNR1792, Gram -, 10^6 viable cells per ml; read-out: minimum inhibitory concentration (MIC)
From the text: as §1

S. aureus HPC308 = experiment: as above; assay type: cell-based; settings: Staphylococcus aureus; clinical isolate S. aureus HPC308, Gram +, 10^6 viable cells per ml; read-out: minimum inhibitory concentration (MIC)
From the text: as §1

E. cloacae HNR1941 = experiment: as above; assay type: cell-based; settings: Enterobacter cloacae; clinical isolate E. cloacae HNR1941, Gram -, 10^6 viable cells per ml; read-out: minimum inhibitory concentration (MIC)
From the text: as §1

E. faecalis HPC948 = experiment: as above; assay type: cell-based; settings: Enterococcus faecalis; clinical isolate E. faecalis HPC948, Gram +, 10^6 viable cells per ml; read-out: minimum inhibitory concentration (MIC)
From the text: as §1

S. marcescens HNR1767 = experiment: as above; assay type: cell-based; settings: Serratia marcescens; clinical isolate S. marcescens HNR1767, Gram -, 10^6 viable cells per ml; read-out: minimum inhibitory concentration (MIC)
From the text: as §1

A. calcoaceticus HNR904 = experiment: as above; assay type: cell-based; settings: Acinetobacter calcoaceticus; clinical isolate A. calcoaceticus HNR904, Gram -, 10^6 viable cells per ml; read-out: minimum inhibitory concentration (MIC)
From the text: as §1

K. pneumoniae HNR869 = experiment: as above; assay type: cell-based; settings: Klebsiella pneumoniae; clinical isolate K. pneumoniae HNR869, Gram -, 10^6 viable cells per ml; read-out: minimum inhibitory concentration (MIC)
From the text: as §1

A. calcoaceticus HNR916 = experiment: as above; assay type: cell-based; settings: Acinetobacter calcoaceticus; clinical isolate A. calcoaceticus HNR916, Gram -, 10^6 viable cells per ml; read-out: minimum inhibitory concentration (MIC)
From the text: as §1

K. pneumoniae HNR858 = experiment: as above; assay type: cell-based; settings: Klebsiella pneumoniae; clinical isolate K. pneumoniae HNR858, Gram -, 10^6 viable cells per ml; read-out: minimum inhibitory concentration (MIC)
From the text: as §1

S. aureus HPC527 = experiment: as above; assay type: cell-based; settings: Staphylococcus aureus; clinical isolate S. aureus HPC527, Gram +, 10^6 viable cells per ml; read-out: minimum inhibitory concentration (MIC)
From the text: as §1

E. faecalis HPC975 = experiment: as above; assay type: cell-based; settings: Enterococcus faecalis; clinical isolate E. faecalis HPC975, Gram +, 10^6 viable cells per ml; read-out: minimum inhibitory concentration (MIC)
From the text: as §1

E. cloacae HNR1946 = experiment: as above; assay type: cell-based; settings: Enterobacter cloacae; clinical isolate E. cloacae HNR1946, Gram -, 10^6 viable cells per ml; read-out: minimum inhibitory concentration (MIC)
From the text: as §1

E. cloacae HNR1939 = experiment: as above; assay type: cell-based; settings: Enterobacter cloacae; clinical isolate E. cloacae HNR1939, Gram -, 10^6 viable cells per ml; read-out: minimum inhibitory concentration (MIC)
From the text: as §1

K. pneumoniae HNR828 = experiment: as above; assay type: cell-based; settings: Klebsiella pneumoniae; clinical isolate K. pneumoniae HNR828, Gram -, 10^6 viable cells per ml; read-out: minimum inhibitory concentration (MIC)
From the text: as §1

A. calcoaceticus HNR939 = experiment: as above; assay type: cell-based; settings: Acinetobacter calcoaceticus; clinical isolate A. calcoaceticus HNR939, Gram -, 10^6 viable cells per ml; read-out: minimum inhibitory concentration (MIC)
From the text: as §1

E. coli NIHJ JC-2 = experiment: Antibacterial activity (MIC), standard strain; assay type: cell-based; settings: Escherichia coli, NIHJJC2; standard strain E. coli NIHJ JC-2, Gram -, 10^6 viable cells per ml; read-out: minimum inhibitory concentration (MIC)
From the text: as §1

K. pneumoniae PCI-602 = experiment: Antibacterial activity (MIC), standard strain; assay type: cell-based; settings: Klebsiella pneumoniae, PCI602; standard strain K. pneumoniae PCI-602, Gram -, 10^6 viable cells per ml; read-out: minimum inhibitory concentration (MIC)
From the text: as §1

S. aureus FDA 209P JC-1 = experiment: Antibacterial activity (MIC), standard strain; assay type: cell-based; settings: Staphylococcus aureus, FDA209P; standard strain S. aureus FDA 209P JC-1, Gram +, 10^6 viable cells per ml; read-out: minimum inhibitory concentration (MIC)
From the text: as §1

S. marcescens IAM 1184 = experiment: Antibacterial activity (MIC), standard strain; assay type: cell-based; settings: Serratia marcescens, IAM1184; standard strain S. marcescens IAM 1184, Gram -, 10^6 viable cells per ml; read-out: minimum inhibitory concentration (MIC)
From the text: as §1

E. colacae 963 = experiment: Antibacterial activity (MIC), standard strain; assay type: cell-based; settings: Enterobacter cloacae; standard strain E. colacae 963, Gram -, 10^6 viable cells per ml; read-out: minimum inhibitory concentration (MIC)
Experimental: as §1
Antibacterial activities (minimum inhibitory concentration: MIC) were determined according to the standard method of the Japan Society of Chemotherapy (Chemotherapy (Tokyo), 29 (1), 76, 1981) by using standard strains and strains isolated from patients of infectious disease (clinically isolated strains) and applying 10^6 viable cells per ml. […].

Male Hartley guinea pigs = experiment: Phototoxicity; assay type: in vivo, guinea pig; settings: 10 mg/kg intravenous, UV exposure 90 minutes, observed 24 hours after irradiation
Experimental: Male Hartley guinea pigs were intravenously administered with test compounds at a dose of 10 mg/kg, and then immediately exposed to WVA on their backs for 90 minutes. Erythemas on the UV irradiated skin were observed 24 hours after the irradiation.

male ICR mice = experiment: Induction of convulsions, intraperitoneal (i.p.) administration; assay type: in vivo, mouse; settings: 100 mg/kg i.p., 30 minutes after oral fenbufen 100 mg/kg
From the text: 4. The induction of convulsions
1) Intraperitoneal (i.p.) administration

[1] = system: Chinese hamster lung cell line (CHL cell); experiment: Chromosomal aberration test; assay type: cell-based; settings: 100 μg/ml, 6 hours treatment at 37° C., then 18 hours in fresh medium
Experimental: 2. Chromosomal aberration test
The experiments were carried out using a Chinese hamster lung cell line (CHL cell). The test compounds prepared were added to cultured cells, and cultivation was continued for 6 hours at 37° C. in 5% CO2. 2-(2-furyl)-3-(5-nitro-2-furyl) acrylamide was used as a positive control. After the cultivation for 6 hours, the cells were washed and added with fresh medium, and then cultivation was further continued for 18 hours. Colcemide solution was added to the culture 2 hours before the completion of the cultivation, and the chromosomal specimens were prepared after the cultivation was completed. Incidence rates of aberration cells were measured at the treatments with 100 μg/ml of the test compounds.

| MIC (S. aureusHPC292) [µg/mL] | MIC (E. faecalis HPC984) [µg/mL] | MIC (S. marcescens HNR1544) [µg/mL] | MIC (S. marcescens HNR1792) [µg/mL] | MIC (S. aureus HPC308) [µg/mL] | MIC (E. cloacae HNR1941) [µg/mL] | MIC (E. faecalis HPC948) [µg/mL] | MIC (A. calcoaceticus HNR904) [µg/mL] | MIC (K. pneumoniae HNR869) [µg/mL] | MIC (A. calcoaceticus HNR916) [µg/mL] | MIC (K. pneumoniae HNR858) [µg/mL] | MIC (S. aureus HPC527) [µg/mL] | MIC (E. faecalis HPC975) [µg/mL] | MIC (E. cloacae HNR1946) [µg/mL] | MIC (E. cloacae HNR1939) [µg/mL] | MIC (E. coli NIHJ JC-2) [µg/mL] | MIC (K. pneumoniae PCI-602) [µg/mL] | MIC (S. aureus FDA 209P JC-1) [µg/mL] | MIC (S. marcescens IAM 1184) [µg/mL] | MIC (E. colacae 963) [µg/mL] | SMILES | further results |
| --- | --- | --- | --- | --- | --- | --- | --- | --- | --- | --- | --- | --- | --- | --- | --- | --- | --- | --- | --- | --- | --- |
| 0.78 (≈ 2.01 µM) | 0.05 (≈ 0.129 µM) | 0.05 (≈ 0.129 µM) | 1.56 (≈ 4.02 µM) | 0.1 (≈ 0.257 µM) | 6.25 (≈ 16.1 µM) | 0.2 (≈ 0.515 µM) | 3.13 (≈ 8.06 µM) | 1.56 (≈ 4.02 µM) | 0.012 (≈ 0.0309 µM) | 0.2 (≈ 0.515 µM) | 0.006 (≈ 0.0154 µM) | 0.78 (≈ 2.01 µM) | 0.2 (≈ 0.515 µM) | 0.2 (≈ 0.515 µM) | 0.012 (≈ 0.0309 µM) | ≤ 0.0015 | 0.006 (≈ 0.0154 µM) | 0.1 (≈ 0.257 µM) | 0.025 (≈ 0.0644 µM) | CC[C@H]1CN(c2c(F)c(N)c3c(=O)c(C(=O)O)cn(C4CC4)c3c2C)C[C@H]1N [Compound 2, 5-amino-7-((3S,4S)-3-amino-4-ethyl-1-pyrrolidinyl)-1-cyclopropyl-6-fluoro-1,4-dihydro-8-methyl-4-oxoquinoline-3-carboxylic acid] | MIC (S. marcescens HNR1767): 12.5 µg/mL (≈ 32.2 µM); MIC (K. pneumoniae HNR828): 3.13 µg/mL (≈ 8.06 µM); MIC (A. calcoaceticus HNR939): 0.2 µg/mL (≈ 0.515 µM) |
| 0.78 (≈ 2.08 µM) | 0.05 (≈ 0.134 µM) | 0.025 (≈ 0.0668 µM) | 1.56 (≈ 4.17 µM) | 0.2 (≈ 0.534 µM) | 3.13 (≈ 8.36 µM) | 0.1 (≈ 0.267 µM) | 1.56 (≈ 4.17 µM) | 0.78 (≈ 2.08 µM) | 0.006 (≈ 0.016 µM) | 0.1 (≈ 0.267 µM) | 0.006 (≈ 0.016 µM) | 0.78 (≈ 2.08 µM) | 0.1 (≈ 0.267 µM) | 0.1 (≈ 0.267 µM) | 0.006 (≈ 0.016 µM) | 0.0008 (≈ 0.00214 µM) | 0.006 (≈ 0.016 µM) | 0.05 (≈ 0.134 µM) | 0.012 (≈ 0.032 µM) | Cc1c(N2C[C@@H](N)[C@@H](C)C2)c(F)c(N)c2c(=O)c(C(=O)O)cn(C3CC3)c12 [Compound 1, 5-amino-7-((3S,4S)-3-amino-4-methyl-1-pyrrolidinyl)-1-cyclopropyl-6-fluoro-1,4-dihydro-8-methyl-4-oxoquinoline-3-carboxylic acid] | Phototoxicity (in words) (Male Hartley guinea pigs): induced no phototoxicity; Phototoxicity (number of guinea pigs with erythemas) (Male Hartley guinea pigs; animals with erythemas/animals tested): 0/5; Induction of convulsions, i.p. (in words) (male ICR mice): did not induce convulsions; Induction of convulsion, i.p. (number of mice with convulsions) (male ICR mice; animals with convulsions/animals tested): 0/6; incidence rate of the aberration cells [1]: less than 10% |
